Source: patent US20260226068A1, “IMIDAZOTRIAZINE IL-17A MODULATORS AND USES THEREOF” (DICE ALPHA, INC., priority 2023, published 2026)

Legend:
IL-17A/F = biological target: T1, IL-17A/F (Homo sapiens, UniProt Q16552+Q96PD4); assay: IL-17A/F HEK-Blue cell assay (SEAP reporter); format: cell-based; details: HEK-Blue IL-17A reporter cells, IL17A/F 5 ng/mL, 20 hours, SEAP read at A630; read-out: HEK-Blue IL17AF (IC50 for IL-17A/F inhibition)
T1 construct: purchased R&D Systems
T1 sequence (Q16552 24-155): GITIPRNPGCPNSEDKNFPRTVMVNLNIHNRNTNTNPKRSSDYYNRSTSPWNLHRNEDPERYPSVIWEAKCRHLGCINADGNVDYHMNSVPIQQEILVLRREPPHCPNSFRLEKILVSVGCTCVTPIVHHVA
T1 sequence (Q96PD4 31-163): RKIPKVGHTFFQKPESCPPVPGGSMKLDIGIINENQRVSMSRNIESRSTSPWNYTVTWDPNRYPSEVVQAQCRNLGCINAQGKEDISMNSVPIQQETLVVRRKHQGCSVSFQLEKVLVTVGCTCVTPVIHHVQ

IL-17A/A = biological target: T2, IL-17A/A (Homo sapiens, UniProt Q16552); assay: IL-17A/A HEK-Blue cell assay (SEAP reporter); format: cell-based; details: HEK-Blue IL-17A reporter cells, IL17A/A 5 ng/mL, 20 hours, SEAP read at A630; read-out: HEK-Blue IL17AA (IC50 for IL-17A/A inhibition)
T2 construct: purchased Genscript Z03228
T2 sequence (Q16552 24-155): T1 sequence (Q16552 24-155)

Compound | IC50 (IL-17A/F) | IC50 (IL-17A/A)
CCn1nccc1C(=O)N[C@H](c1cn2nc(C[C@H]3C[C@@H](C(F)(F)F)CNC3=O)c(CN3CCC(C)(C)C3)nc2n1)C1CCC(F)(F)CC1 [Compound 342, N—((S)-(4,4-difluorocyclohexyl)(3-((3,3-dimethylpyrrolidin-1-yl)methyl)-2-(((3R,5R)-2-oxo-5-(trifluoromethyl)piperidin-3-yl)methyl)imidazo[1,2-b][1,2,4]triazin-6-yl)methyl)-1-ethyl-1H-pyrazole-5-carboxamide] | > 1000 nM | 100 to 1000 nM
CCn1nccc1C(=O)N[C@H](c1cn2nc(C[C@H]3C[C@@H](C(F)(F)F)CNC3=O)c(CN3CCCC3C)nc2n1)C1CCC(F)(F)CC1 (stereo partly drawn) [Compound 343, N-((1S)-(4,4-difluorocyclohexyl)(3-((2-methylpyrrolidin-1-yl)methyl)-2-(((3R,5R)-2-oxo-5-(trifluoromethyl)piperidin-3-yl)methyl)imidazo[1,2-b][1,2,4]triazin-6-yl)methyl)-1-ethyl-1H-pyrazole-5-carboxamide] | > 1000 nM | < 100 nM
CCn1nccc1C(=O)N[C@H](c1cn2nc(C[C@H]3C[C@@H](C(F)(F)F)CNC3=O)c(CN3CCC4(CC4)C3)nc2n1)C1CCC(F)(F)CC1 [Compound 344, N—((S)-(3-((5-azaspiro[2.4]heptan-5-yl)methyl)-2-(((3R,5R)-2-oxo-5-(trifluoromethyl)piperidin-3-yl)methyl)imidazo[1,2-b][1,2,4]triazin-6-yl)(4,4-difluorocyclohexyl)methyl)-1-ethyl-1H-pyrazole-5-carboxamide] | > 1000 nM | 100 to 1000 nM
CCn1nccc1C(=O)N[C@H](c1cn2nc(C[C@H]3C[C@@H](C(F)(F)F)CNC3=O)c(CN3CCC(F)(F)CC3)nc2n1)C1CCC(F)(F)CC1 [Compound 345, N—((S)-(4,4-difluorocyclohexyl)(3-((4,4-difluoropiperidin-1-yl)methyl)-2-(((3R,5R)-2-oxo-5-(trifluoromethyl)piperidin-3-yl)methyl)imidazo[1,2-b][1,2,4]triazin-6-yl)methyl)-1-ethyl-1H-pyrazole-5-carboxamide] | > 1000 nM | < 100 nM
CCn1nccc1C(=O)N[C@H](c1cn2nc(C[C@H]3C[C@@H](C(F)(F)F)CNC3=O)c(CN3CCC4(CC3)CC4)nc2n1)C1CCC(F)(F)CC1 [Compound 346, N—((S)-(3-((6-azaspiro[2.5]octan-6-yl)methyl)-2-(((3R,5R)-2-oxo-5-(trifluoromethyl)piperidin-3-yl)methyl)imidazo[1,2-b][1,2,4]triazin-6-yl)(4,4-difluorocyclohexyl)methyl)-1-ethyl-1H-pyrazole-5-carboxamide] | > 1000 nM | < 100 nM
CCn1nccc1C(=O)N[C@H](c1cn2nc(C[C@H]3C[C@@H](C(F)(F)F)CNC3=O)c(CN3CCCC4(CC4)C3)nc2n1)C1CCC(F)(F)CC1 [Compound 347, N—((S)-(3-((5-azaspiro[2.5]octan-5-yl)methyl)-2-(((3R,5R)-2-oxo-5-(trifluoromethyl)piperidin-3-yl)methyl)imidazo[1,2-b][1,2,4]triazin-6-yl)(4,4-difluorocyclohexyl)methyl)-1-ethyl-1H-pyrazole-5-carboxamide] | > 1000 nM | < 100 nM
CCn1nccc1C(=O)N[C@H](c1cn2nc(C[C@H]3C[C@@H](C(F)(F)F)CNC3=O)c(CN3CC4CC(C3)C4(F)F)nc2n1)C1CCC(F)(F)CC1 [Compound 348, N-((1S)-(3-((6,6-difluoro-3-azabicyclo[3.1.1]heptan-3-yl)methyl)-2-(((3R,5R)-2-oxo-5-(trifluoromethyl)piperidin-3-yl)methyl)imidazo[1,2-b][1,2,4]triazin-6-yl)(4,4-difluorocyclohexyl)methyl)-1-ethyl-1H-pyrazole-5-carboxamide] | 100 to 1000 nM | < 100 nM
CCn1nccc1C(=O)N[C@H](c1cn2nc(C[C@H]3C[C@@H](C(F)(F)F)CNC3=O)c(CN3CCOC(C)C3)nc2n1)C1CCC(F)(F)CC1 (stereo partly drawn) [Compound 349, N-((1S)-(4,4-difluorocyclohexyl)(3-((2-methylmorpholino)methyl)-2-(((3R,5R)-2-oxo-5-(trifluoromethyl)piperidin-3-yl)methyl)imidazo[1,2-b][1,2,4]triazin-6-yl)methyl)-1-ethyl-1H-pyrazole-5-carboxamide] | > 1000 nM | < 100 nM
CCn1nccc1C(=O)N[C@H](c1cn2nc(C[C@H]3C[C@@H](C(F)(F)F)CNC3=O)c(CN3CCOC(C)(C)C3)nc2n1)C1CCC(F)(F)CC1 [Compound 351, N—((S)-(4,4-difluorocyclohexyl)(3-((2,2-dimethylmorpholino)methyl)-2-(((3R,5R)-2-oxo-5-(trifluoromethyl)piperidin-3-yl)methyl)imidazo[1,2-b][1,2,4]triazin-6-yl)methyl)-1-ethyl-1H-pyrazole-5-carboxamide] | > 1000 nM | < 100 nM
CCn1nccc1C(=O)N[C@H](c1cn2nc(C[C@H]3C[C@@H](C(F)(F)F)CNC3=O)c(CN3CCN(CC(F)(F)F)C(=O)C3)nc2n1)C1CCC(F)(F)CC1 [Compound 352, N—((S)-(4,4-difluorocyclohexyl)(3-((3-oxo-4-(2,2,2-trifluoroethyl)piperazin-1-yl)methyl)-2-(((3R,5R)-2-oxo-5-(trifluoromethyl)piperidin-3-yl)methyl)imidazo[1,2-b][1,2,4]triazin-6-yl)methyl)-1-ethyl-1H-pyrazole-5-carboxamide] | > 1000 nM | 100 to 1000 nM
CCn1nccc1C(=O)N[C@H](c1cn2nc(C[C@H]3C[C@@H](C(F)(F)F)CNC3=O)c(C3COCCN3)nc2n1)C1CCC(F)(F)CC1 (stereo partly drawn) [Compound 353, N-((1S)-(4,4-difluorocyclohexyl)(3-(morpholin-3-yl)-2-(((3R,5R)-2-oxo-5-(trifluoromethyl)piperidin-3-yl)methyl)imidazo[1,2-b][1,2,4]triazin-6-yl)methyl)-1-ethyl-1H-pyrazole-5-carboxamide] | > 1000 nM | < 100 nM
CCn1nccc1C(=O)N[C@H](c1cn2nc(C[C@H]3C[C@@H](C(F)(F)F)CNC3=O)c(C3CCOC4(C3)CN(C)C4)nc2n1)C1CCC(F)(F)CC1 (stereo partly drawn) [Compound 354, N-((1S)-(4,4-difluorocyclohexyl)(3-(2-methyl-5-oxa-2-azaspiro[3.5]nonan-8-yl)-2-(((3R,5R)-2-oxo-5-(trifluoromethyl)piperidin-3-yl)methyl)imidazo[1,2-b][1,2,4]triazin-6-yl)methyl)-1-ethyl-1H-pyrazole-5-carboxamide] | > 1000 nM | 100 to 1000 nM
CCn1nccc1C(=O)N[C@H](c1cn2nc(C[C@H]3C[C@@H](C(F)(F)F)CNC3=O)c(C3COC4(C3)CN(C)C4)nc2n1)C1CCC(F)(F)CC1 (stereo partly drawn) [Compound 355, N-((1S)-(4,4-difluorocyclohexyl)(3-(2-methyl-5-oxa-2-azaspiro[3.4]octan-7-yl)-2-(((3R,5R)-2-oxo-5-(trifluoromethyl)piperidin-3-yl)methyl)imidazo[1,2-b][1,2,4]triazin-6-yl)methyl)-1-ethyl-1H-pyrazole-5-carboxamide] | > 1000 nM | 100 to 1000 nM
CCn1nccc1C(=O)N[C@H](c1cn2nc(C[C@H]3C[C@@H](C(F)(F)F)CNC3=O)c(CN(C)C3CC3)nc2n1)C1CCC(F)(F)CC1 [Compound 356, N—((S)-(3-((cyclopropyl(methyl)amino)methyl)-2-(((3R,5R)-2-oxo-5-(trifluoromethyl)piperidin-3-yl)methyl)imidazo[1,2-b][1,2,4]triazin-6-yl)(4,4-difluorocyclohexyl)methyl)-1-ethyl-1H-pyrazole-5-carboxamide] | 100 to 1000 nM | < 100 nM
CCn1nccc1C(=O)N[C@H](c1cn2nc(C[C@H]3C[C@@H](C(F)(F)F)CNC3=O)c(N3CCN(C)C4(CC4)C3)nc2n1)C1CCC(F)(F)CC1 [Compound 357, N—((S)-(4,4-difluorocyclohexyl)(3-(4-methyl-4,7-diazaspiro[2.5]octan-7-yl)-2-(((3R,5R)-2-oxo-5-(trifluoromethyl)piperidin-3-yl)methyl)imidazo[1,2-b][1,2,4]triazin-6-yl)methyl)-1-ethyl-1H-pyrazole-5-carboxamide] | 100 to 1000 nM | < 100 nM
CCn1nccc1C(=O)N[C@H](c1cn2nc(C[C@H]3C[C@@H](C(F)(F)F)CNC3=O)c(C3CCn4nccc4C3)nc2n1)C1CCC(F)(F)CC1 (stereo partly drawn) [Compound 358, N-((1S)-(4,4-difluorocyclohexyl)(2-(((3R,5R)-2-oxo-5-(trifluoromethyl)piperidin-3-yl)methyl)-3-(4,5,6,7-tetrahydropyrazolo[1,5-a]pyridin-5-yl)imidazo[1,2-b][1,2,4]triazin-6-yl)methyl)-1-ethyl-1H-pyrazole-5-carboxamide] | 100 to 1000 nM | < 100 nM
CCn1nccc1C(=O)N[C@H](c1cn2nc(C[C@H]3C[C@@H](C(F)(F)F)CNC3=O)c(CCN3CCOCC3)nc2n1)C1CCC(F)(F)CC1 [Compound 359] | 100 to 1000 nM | < 100 nM
CCn1nccc1C(=O)N[C@H](c1cn2nc(C[C@H]3C[C@@H](C(F)(F)F)CNC3=O)c(N3CC4CC(C3)N4C)nc2n1)C1CCC(F)(F)CC1 [Compound 360, N-((1S)-(4,4-difluorocyclohexyl)(3-(6-methyl-3,6-diazabicyclo[3.1.1]heptan-3-yl)-2-(((3R,5R)-2-oxo-5-(trifluoromethyl)piperidin-3-yl)methyl)imidazo[1,2-b][1,2,4]triazin-6-yl)methyl)-1-ethyl-1H-pyrazole-5-carboxamide] | 100 to 1000 nM | 100 to 1000 nM
